Tests used:
[1] = system: mRNA expressed from the genes (A) to (D) in rat liver; assay: Behavior of genes (mRNA expression level, oligo-DNA microarray) in rat liver after 28-day oral administration; assay type: in vivo; conditions: for Behavior of gene caused by administration of chemical substance, Gene No. 4846 / Behavior of gene caused by administration of chemical substance, Gene No. 2026 / Behavior of gene caused by administration of chemical substance, Gene No. 4218 / Behavior of gene caused by administration of chemical substance, Gene No. 6182 / Behavior of gene caused by administration of chemical substance, Gene No. 5600: gene group (A); for Behavior of gene caused by administration of chemical substance, Gene No. 4846: Unigene No. Rn.144554; for Behavior of gene caused by administration of chemical substance, Gene No. 2026 / Behavior of gene caused by administration of chemical substance, Gene No. 4218: Unigene No. Rn.167075; for Behavior of gene caused by administration of chemical substance, Gene No. 6182: Unigene No. Rn.5834; for Behavior of gene caused by administration of chemical substance, Gene No. 5600: Unigene No. Rn.9836; for Behavior of gene caused by administration of chemical substance, Gene No. 1494 / Behavior of gene caused by administration of chemical substance, Gene No. 2045 / Behavior of gene caused by administration of chemical substance, Gene No. 2203: gene group (B); for Behavior of gene caused by administration of chemical substance, Gene No. 1494: Unigene No. Rn.1430; for Behavior of gene caused by administration of chemical substance, Gene No. 2045: Unigene No. Rn.19329; for Behavior of gene caused by administration of chemical substance, Gene No. 2203: Unigene No. Rn.21240; for Behavior of gene caused by administration of chemical substance, Gene No. 533 / Behavior of gene caused by administration of chemical substance, Gene No. 725 / Behavior of gene caused by administration of chemical substance, Gene No. 1163 / Behavior of gene caused by administration of chemical substance, Gene No. 4973 / Behavior of gene caused by administration of chemical substance, Gene No. 4095 / Behavior of gene caused by administration of chemical substance, Gene No. 1334 / Behavior of gene caused by administration of chemical substance, Gene No. 6620 / Behavior of gene caused by administration of chemical substance, Gene No. 6303 / Behavior of gene caused by administration of chemical substance, Gene No. 5878 / Behavior of gene caused by administration of chemical substance, Gene No. 1131 / Behavior of gene caused by administration of chemical substance, Gene No. 1562 / Behavior of gene caused by administration of chemical substance, Gene No. 1741 / Behavior of gene caused by administration of chemical substance, Gene No. 893 / Behavior of gene caused by administration of chemical substance, Gene No. 6026 / Behavior of gene caused by administration of chemical substance, Gene No. 154 / Behavior of gene caused by administration of chemical substance, Gene No. 1993 / Behavior of gene caused by administration of chemical substance, Gene No. 813 / Behavior of gene caused by administration of chemical substance, Gene No. 2494 / Behavior of gene caused by administration of chemical substance, Gene No. 2546 / Behavior of gene caused by administration of chemical substance, Gene No. 3776 / Behavior of gene caused by administration of chemical substance, Gene No. 3929 / Behavior of gene caused by administration of chemical substance, Gene No. 1119 / Behavior of gene caused by administration of chemical substance, Gene No. 6742 / Behavior of gene caused by administration of chemical substance, Gene No. 5634: gene group (C); for Behavior of gene caused by administration of chemical substance, Gene No. 533: Unigene No. Rn.106184; for Behavior of gene caused by administration of chemical substance, Gene No. 725: Unigene No. Rn.108075; for Behavior of gene caused by administration of chemical substance, Gene No. 1163: Unigene No. Rn.11766; for Behavior of gene caused by administration of chemical substance, Gene No. 4973: Unigene No. Rn.118529; for Behavior of gene caused by administration of chemical substance, Gene No. 4095: Unigene No. Rn.119024; for Behavior of gene caused by administration of chemical substance, Gene No. 1334 / Behavior of gene caused by administration of chemical substance, Gene No. 6620: Unigene No. Rn.120914; for Behavior of gene caused by administration of chemical substance, Gene No. 6303: Unigene No. Rn.123063; for Behavior of gene caused by administration of chemical substance, Gene No. 5878: Unigene No. Rn.143213; for Behavior of gene caused by administration of chemical substance, Gene No. 1131: Unigene No. Rn.144946; for Behavior of gene caused by administration of chemical substance, Gene No. 1562: Unigene No. Rn.14744; for Behavior of gene caused by administration of chemical substance, Gene No. 1741: Unigene No. Rn.1647; for Behavior of gene caused by administration of chemical substance, Gene No. 893: Unigene No. Rn.164817; for Behavior of gene caused by administration of chemical substance, Gene No. 6026: Unigene No. Rn.167685; for Behavior of gene caused by administration of chemical substance, Gene No. 154: Unigene No. Rn.185941; for Behavior of gene caused by administration of chemical substance, Gene No. 1993: Unigene No. Rn.18728; for Behavior of gene caused by administration of chemical substance, Gene No. 813: Unigene No. Rn.201760; for Behavior of gene caused by administration of chemical substance, Gene No. 2494: Unigene No. Rn.23969; for Behavior of gene caused by administration of chemical substance, Gene No. 2546: Unigene No. Rn.24561; for Behavior of gene caused by administration of chemical substance, Gene No. 3776: Unigene No. Rn.43232; for Behavior of gene caused by administration of chemical substance, Gene No. 3929: Unigene No. Rn.4620; for Behavior of gene caused by administration of chemical substance, Gene No. 1119: Unigene No. Rn.9757; for Behavior of gene caused by administration of chemical substance, Gene No. 6742: Unigene No. Rn.9779; for Behavior of gene caused by administration of chemical substance, Gene No. 5634: Unigene No. Rn.9862; for Behavior of gene caused by administration of chemical substance, Gene No. 5726: gene group (D), Unigene No. Rn.9939
Outline: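 Rat liver RNA after 28 days of daily gavage dosing (male F344, 5 weeks old, four per group). A change reaching 1.5-fold, or 1/1.5, against solvent control scores as significant; opposite direction versus another carcinogen scores as not significant.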

liver = conditions: in vivo; cited from earlier work
rodent = conditions: in vivo; cited from earlier work

Cc1cccc(N=Nc2ccc(N(C)C)cc2)c1 [TS076, 3′-Methyl-4-dimethylaminoazobenzene]
+: Behavior of gene caused by administration of chemical substance, Gene No. 4846 ([1]; mRNA vs vehicle control group) | Behavior of gene caused by administration of chemical substance, Gene No. 2026 ([1]; mRNA vs vehicle control group) | Behavior of gene caused by administration of chemical substance, Gene No. 4218 ([1]; mRNA vs vehicle control group) | Behavior of gene caused by administration of chemical substance, Gene No. 6182 ([1]; mRNA vs vehicle control group) | Behavior of gene caused by administration of chemical substance, Gene No. 5600 ([1]; mRNA vs vehicle control group) | Behavior of gene caused by administration of chemical substance, Gene No. 1494 ([1]; mRNA vs vehicle control group) | Behavior of gene caused by administration of chemical substance, Gene No. 2045 ([1]; mRNA vs vehicle control group) | Behavior of gene caused by administration of chemical substance, Gene No. 533 ([1]; mRNA vs vehicle control group) | Behavior of gene caused by administration of chemical substance, Gene No. 725 ([1]; mRNA vs vehicle control group) | Behavior of gene caused by administration of chemical substance, Gene No. 4973 ([1]; mRNA vs vehicle control group) | Behavior of gene caused by administration of chemical substance, Gene No. 4095 ([1]; mRNA vs vehicle control group) | Behavior of gene caused by administration of chemical substance, Gene No. 6303 ([1]; mRNA vs vehicle control group) | Behavior of gene caused by administration of chemical substance, Gene No. 1562 ([1]; mRNA vs vehicle control group) | Behavior of gene caused by administration of chemical substance, Gene No. 1741 ([1]; mRNA vs vehicle control group) | Behavior of gene caused by administration of chemical substance, Gene No. 154 ([1]; mRNA vs vehicle control group) | Behavior of gene caused by administration of chemical substance, Gene No. 1993 ([1]; mRNA vs vehicle control group)
Cr+: Liver carcinogenicity (liver)
−: Behavior of gene caused by administration of chemical substance, Gene No. 2203 ([1]; mRNA vs vehicle control group) | Behavior of gene caused by administration of chemical substance, Gene No. 1163 ([1]; mRNA vs vehicle control group) | Behavior of gene caused by administration of chemical substance, Gene No. 1334 ([1]; mRNA vs vehicle control group) | Behavior of gene caused by administration of chemical substance, Gene No. 6620 ([1]; mRNA vs vehicle control group) | Behavior of gene caused by administration of chemical substance, Gene No. 5878 ([1]; mRNA vs vehicle control group) | Behavior of gene caused by administration of chemical substance, Gene No. 1131 ([1]; mRNA vs vehicle control group) | Behavior of gene caused by administration of chemical substance, Gene No. 893 ([1]; mRNA vs vehicle control group) | Behavior of gene caused by administration of chemical substance, Gene No. 6026 ([1]; mRNA vs vehicle control group) | Behavior of gene caused by administration of chemical substance, Gene No. 813 ([1]; mRNA vs vehicle control group) | Behavior of gene caused by administration of chemical substance, Gene No. 2494 ([1]; mRNA vs vehicle control group) | Behavior of gene caused by administration of chemical substance, Gene No. 2546 ([1]; mRNA vs vehicle control group) | Behavior of gene caused by administration of chemical substance, Gene No. 3776 ([1]; mRNA vs vehicle control group) | Behavior of gene caused by administration of chemical substance, Gene No. 3929 ([1]; mRNA vs vehicle control group) | Behavior of gene caused by administration of chemical substance, Gene No. 1119 ([1]; mRNA vs vehicle control group) | Behavior of gene caused by administration of chemical substance, Gene No. 6742 ([1]; mRNA vs vehicle control group) | Behavior of gene caused by administration of chemical substance, Gene No. 5634 ([1]; mRNA vs vehicle control group) | Behavior of gene caused by administration of chemical substance, Gene No. 5726 ([1]; mRNA vs vehicle control group)
C+: Carcinogenicity (rodent)

CCC[N+](=O)[O-] [TS036, 1-Nitropropane]
−: Behavior of gene caused by administration of chemical substance, Gene No. 4846 [1] | Behavior of gene caused by administration of chemical substance, Gene No. 2026 [1] | Behavior of gene caused by administration of chemical substance, Gene No. 4218 [1] | Behavior of gene caused by administration of chemical substance, Gene No. 6182 [1] | Behavior of gene caused by administration of chemical substance, Gene No. 5600 [1] | Behavior of gene caused by administration of chemical substance, Gene No. 1494 [1] | Behavior of gene caused by administration of chemical substance, Gene No. 2045 [1] | Behavior of gene caused by administration of chemical substance, Gene No. 2203 [1] | Behavior of gene caused by administration of chemical substance, Gene No. 533 [1] | Behavior of gene caused by administration of chemical substance, Gene No. 1163 [1] | Behavior of gene caused by administration of chemical substance, Gene No. 1334 [1] | Behavior of gene caused by administration of chemical substance, Gene No. 6620 [1] | Behavior of gene caused by administration of chemical substance, Gene No. 6303 [1] | Behavior of gene caused by administration of chemical substance, Gene No. 6026 [1] | Behavior of gene caused by administration of chemical substance, Gene No. 813 [1] | Behavior of gene caused by administration of chemical substance, Gene No. 2494 [1] | Behavior of gene caused by administration of chemical substance, Gene No. 6742 [1] | Behavior of gene caused by administration of chemical substance, Gene No. 5634 [1] | Behavior of gene caused by administration of chemical substance, Gene No. 5726 [1]
+: Behavior of gene caused by administration of chemical substance, Gene No. 725 [1] | Behavior of gene caused by administration of chemical substance, Gene No. 4973 [1] | Behavior of gene caused by administration of chemical substance, Gene No. 4095 [1] | Behavior of gene caused by administration of chemical substance, Gene No. 5878 [1] | Behavior of gene caused by administration of chemical substance, Gene No. 1131 [1] | Behavior of gene caused by administration of chemical substance, Gene No. 1562 [1] | Behavior of gene caused by administration of chemical substance, Gene No. 1741 [1] | Behavior of gene caused by administration of chemical substance, Gene No. 893 [1] | Behavior of gene caused by administration of chemical substance, Gene No. 154 [1] | Behavior of gene caused by administration of chemical substance, Gene No. 1993 [1] | Behavior of gene caused by administration of chemical substance, Gene No. 2546 [1] | Behavior of gene caused by administration of chemical substance, Gene No. 3776 [1] | Behavior of gene caused by administration of chemical substance, Gene No. 3929 [1] | Behavior of gene caused by administration of chemical substance, Gene No. 1119 [1]
Cr−: Liver carcinogenicity (liver)
C−: Carcinogenicity (rodent)

Reference: patent publication US20110039721A1, “METHOD FOR PREDICTION ABOUT CARCINOGENICITY OF SUBSTANCE IN RODENT” (Chemicals Evaluation and Research Institute, priority 2007, published 2011)
